Measurements reported in the supplement of paper PMC11414989.

Experiments:
Settings in all cases: exposure window: 6 hpf to 120 hpf, static, assay age: 120 hpf (5 dpf)
[1] = system: Danio rerio larvae (Tropical 5D); assay: mean distance moved of exposed larvae, light phase (µm per frame (1/25 s)); higher = more movement
Description: (§1)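 Larval photomotor response in Tropical 5D wild-type zebrafish. Larvae were statically exposed to each chemical from 6 hpf to 5 dpf in 96-well plates; morphologically abnormal larvae were excluded. At 120 hpf, larvae were tracked with Ethovision XT (25 frames/s) over the 2nd cycle of 3 min light and 3 min dark. Values are the mean movement metric of exposed larvae per phase; same-plate control means (plate-dependent baseline) are given as conditions.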

[2] = system: Danio rerio larvae (Tropical 5D); assay: mean angular velocity of exposed larvae, light phase (angular velocity (unit not stated)); higher = more movement
Description: as §1

[3] = system: Danio rerio larvae (Tropical 5D); assay: mean distance moved of exposed larvae, dark phase (µm per frame (1/25 s)); higher = more movement
Description: as §1

[4] = system: Danio rerio larvae (Tropical 5D); assay: mean angular velocity of exposed larvae, dark phase (angular velocity (unit not stated)); higher = more movement
Description: as §1

## CC[C@H](C)[C@H]1O[C@]2(C=C[C@@H]1C)C[C@@H]1C[C@@H](C/C=C(\C)[C@@H](O[C@H]3C[C@H](OC)[C@@H](O[C@H]4C[C@H](OC)[C@@H](O)[C@H](C)O4)[C@H](C)O3)[C@@H](C)/C=C/C=C3\CO[C@@H]4[C@H](O)C(C)=C[C@@H](C(=O)O1)[C@]34O)O2.CO[C@H]1C[C@H](O[C@H]2[C@H](C)O[C@@H](O[C@@H]3/C(C)=C/C[C@@H]4C[C@@H](C[C@]5(C=C[C@H](C)[C@@H](C(C)C)O5)O4)OC(=O)[C@@H]4C=C(C)[C@@H](O)[C@H]5OC/C(=C\C=C\[C@@H]3C)[C@]54O)C[C@@H]2OC)O[C@@H](C)[C@@H]1O [Abamectin]
[1]; 0.1 µM
  mean distance moved of exposed larvae: 2.76
[1]; 0.2 µM
  mean distance moved of exposed larvae: 5.62
[1]; 0.4 µM
  mean distance moved of exposed larvae: 2.25
[1]; 0.5 µM
  mean distance moved of exposed larvae: 2.39
[1]; 0.6 µM
  mean distance moved of exposed larvae: 1.04
[1]; 0.8 µM
  mean distance moved of exposed larvae: 0.0237
[2]; 0.1 µM
  mean angular velocity of exposed larvae: 0.111
[2]; 0.2 µM
  mean angular velocity of exposed larvae: 0.19
[2]; 0.4 µM
  mean angular velocity of exposed larvae: 0.173
[2]; 0.5 µM
  mean angular velocity of exposed larvae: 0.0668
[2]; 0.6 µM
  mean angular velocity of exposed larvae: 0.0447
[2]; 0.8 µM
  mean angular velocity of exposed larvae: 0.00094
[3]; 0.1 µM
  mean distance moved of exposed larvae: 11.5
[3]; 0.2 µM
  mean distance moved of exposed larvae: 14.8
[3]; 0.4 µM
  mean distance moved of exposed larvae: 7.04
[3]; 0.5 µM
  mean distance moved of exposed larvae: 3.9
[3]; 0.6 µM
  mean distance moved of exposed larvae: 2.89
[3]; 0.8 µM
  mean distance moved of exposed larvae: 3.08
[4]; 0.1 µM
  mean angular velocity of exposed larvae: 0.434
[4]; 0.2 µM
  mean angular velocity of exposed larvae: 0.554
[4]; 0.4 µM
  mean angular velocity of exposed larvae: 0.283
[4]; 0.5 µM
  mean angular velocity of exposed larvae: 0.124
[4]; 0.6 µM
  mean angular velocity of exposed larvae: 0.0798
[4]; 0.8 µM
  mean angular velocity of exposed larvae: 0.0985

## CN1C(=O)CN=C(c2ccccc2)c2cc(Cl)ccc21 [Diazepam]
[1]; 1 µM
  mean distance moved of exposed larvae: 10.9
[1]; 3 µM
  mean distance moved of exposed larvae: 7.88
[1]; 5 µM
  mean distance moved of exposed larvae: 7.53
[1]; 8 µM
  mean distance moved of exposed larvae: 10
[1]; 12 µM
  mean distance moved of exposed larvae: 11
[2]; 1 µM
  mean angular velocity of exposed larvae: 0.379
[2]; 3 µM
  mean angular velocity of exposed larvae: 0.422
[2]; 5 µM
  mean angular velocity of exposed larvae: 0.41
[2]; 8 µM
  mean angular velocity of exposed larvae: 0.389
[2]; 12 µM
  mean angular velocity of exposed larvae: 0.456
[3]; 1 µM
  mean distance moved of exposed larvae: 22.5
[3]; 3 µM
  mean distance moved of exposed larvae: 22.7
[3]; 5 µM
  mean distance moved of exposed larvae: 21.5
[3]; 8 µM
  mean distance moved of exposed larvae: 17.3
[3]; 12 µM
  mean distance moved of exposed larvae: 17
[4]; 1 µM
  mean angular velocity of exposed larvae: 1.05
[4]; 3 µM
  mean angular velocity of exposed larvae: 1.06
[4]; 5 µM
  mean angular velocity of exposed larvae: 1.17
[4]; 8 µM
  mean angular velocity of exposed larvae: 0.786
[4]; 12 µM
  mean angular velocity of exposed larvae: 0.733

## c1ccc2c(c1)c1cccc3c4ccccc4c4cccc2c4c13 [Dibenzo[e-l]pyrene]
[1]; 0.01 µM
  mean distance moved of exposed larvae: 7.75
[1]; 0.025 µM
  mean distance moved of exposed larvae: 6.96
[1]; 0.065 µM
  mean distance moved of exposed larvae: 6.48
[1]; 0.164 µM
  mean distance moved of exposed larvae: 8.06
[1]; 0.35 µM
  mean distance moved of exposed larvae: 7.37
[1]; 0.75 µM
  mean distance moved of exposed larvae: 6.8
[1]; 1 µM
  mean distance moved of exposed larvae: 4.47
[1]; 2.54 µM
  mean distance moved of exposed larvae: 2.56
[1]; 6.45 µM
  mean distance moved of exposed larvae: 1.7
[1]; 16.4 µM
  mean distance moved of exposed larvae: 1.99
[1]; 35 µM
  mean distance moved of exposed larvae: 1.66
[1]; 74.8 µM
  mean distance moved of exposed larvae: 1.63
[1]; 100 µM
  mean distance moved of exposed larvae: 3.03
[2]; 0.01 µM
  mean angular velocity of exposed larvae: 0.217
[2]; 0.025 µM
  mean angular velocity of exposed larvae: 0.129
[2]; 0.065 µM
  mean angular velocity of exposed larvae: 0.194
[2]; 0.164 µM
  mean angular velocity of exposed larvae: 0.187
[2]; 0.35 µM
  mean angular velocity of exposed larvae: 0.147
[2]; 0.75 µM
  mean angular velocity of exposed larvae: 0.138
[2]; 1 µM
  mean angular velocity of exposed larvae: 0.119
[2]; 2.54 µM
  mean angular velocity of exposed larvae: 0.113
[2]; 6.45 µM
  mean angular velocity of exposed larvae: 0.0734
[2]; 16.4 µM
  mean angular velocity of exposed larvae: 0.0678
[2]; 35 µM
  mean angular velocity of exposed larvae: 0.0716
[2]; 74.8 µM
  mean angular velocity of exposed larvae: 0.0555
[2]; 100 µM
  mean angular velocity of exposed larvae: 0.0996
[3]; 0.01 µM
  mean distance moved of exposed larvae: 23.6
[3]; 0.025 µM
  mean distance moved of exposed larvae: 22.4
[3]; 0.065 µM
  mean distance moved of exposed larvae: 24.7
[3]; 0.164 µM
  mean distance moved of exposed larvae: 22.8
[3]; 0.35 µM
  mean distance moved of exposed larvae: 25.3
[3]; 0.75 µM
  mean distance moved of exposed larvae: 26.3
[3]; 1 µM
  mean distance moved of exposed larvae: 13.5
[3]; 2.54 µM
  mean distance moved of exposed larvae: 10.8
[3]; 6.45 µM
  mean distance moved of exposed larvae: 9.33
[3]; 16.4 µM
  mean distance moved of exposed larvae: 8.16
[3]; 35 µM
  mean distance moved of exposed larvae: 12
[3]; 74.8 µM
  mean distance moved of exposed larvae: 9.85
[3]; 100 µM
  mean distance moved of exposed larvae: 9.64
[4]; 0.01 µM
  mean angular velocity of exposed larvae: 0.665
[4]; 0.025 µM
  mean angular velocity of exposed larvae: 0.598
[4]; 0.065 µM
  mean angular velocity of exposed larvae: 0.644
[4]; 0.164 µM
  mean angular velocity of exposed larvae: 0.681
[4]; 0.35 µM
  mean angular velocity of exposed larvae: 0.693
[4]; 0.75 µM
  mean angular velocity of exposed larvae: 0.704
[4]; 1 µM
  mean angular velocity of exposed larvae: 0.415
[4]; 2.54 µM
  mean angular velocity of exposed larvae: 0.428
[4]; 6.45 µM
  mean angular velocity of exposed larvae: 0.349
[4]; 16.4 µM
  mean angular velocity of exposed larvae: 0.245
[4]; 35 µM
  mean angular velocity of exposed larvae: 0.503
[4]; 74.8 µM
  mean angular velocity of exposed larvae: 0.384
[4]; 100 µM
  mean angular velocity of exposed larvae: 0.353

## CCN(CC(=O)O)S(=O)(=O)C(F)(F)C(F)(F)C(F)(F)C(F)(F)C(F)(F)C(F)(F)C(F)(F)C(F)(F)F [N-ethylperfluoro-1-octanesulfonamidoacetic acid]
[1]; 0.25 µM
  mean distance moved of exposed larvae: 1.44
[2]; 0.25 µM
  mean angular velocity of exposed larvae: 0.0592
[3]; 0.25 µM
  mean distance moved of exposed larvae: 8.83
[4]; 0.25 µM
  mean angular velocity of exposed larvae: 0.335

## CN(CC(=O)O)S(=O)(=O)C(F)(F)C(F)(F)C(F)(F)C(F)(F)C(F)(F)C(F)(F)C(F)(F)C(F)(F)F [N-methylperfluoro-1-octanesulfonamidoacetic acid]
[1]; 0.25 µM
  mean distance moved of exposed larvae: 1.43
[2]; 0.25 µM
  mean angular velocity of exposed larvae: 0.0567
[3]; 0.25 µM
  mean distance moved of exposed larvae: 6.38
[4]; 0.25 µM
  mean angular velocity of exposed larvae: 0.256

## NC(=O)C(F)(F)C(F)(F)C(F)(F)C(F)(F)F [Nonafluoropentanamide]
[1]; 0.015 µM
  mean distance moved of exposed larvae: 2.24
[1]; 0.046 µM
  mean distance moved of exposed larvae: 4.1
[1]; 0.14 µM
  mean distance moved of exposed larvae: 3.32
[1]; 0.41 µM
  mean distance moved of exposed larvae: 2.83
[1]; 1.23 µM
  mean distance moved of exposed larvae: 1.91
[1]; 3.7 µM
  mean distance moved of exposed larvae: 2.44
[1]; 11.1 µM
  mean distance moved of exposed larvae: 3.86
[1]; 33.3 µM
  mean distance moved of exposed larvae: 2.5
[1]; 66.5 µM
  mean distance moved of exposed larvae: 2.36
[1]; 100 µM
  mean distance moved of exposed larvae: 2.76
[2]; 0.015 µM
  mean angular velocity of exposed larvae: 0.107
[2]; 0.046 µM
  mean angular velocity of exposed larvae: 0.153
[2]; 0.14 µM
  mean angular velocity of exposed larvae: 0.163
[2]; 0.41 µM
  mean angular velocity of exposed larvae: 0.0614
[2]; 1.23 µM
  mean angular velocity of exposed larvae: 0.124
[2]; 3.7 µM
  mean angular velocity of exposed larvae: 0.0715
[2]; 11.1 µM
  mean angular velocity of exposed larvae: 0.078
[2]; 33.3 µM
  mean angular velocity of exposed larvae: 0.103
[2]; 66.5 µM
  mean angular velocity of exposed larvae: 0.0723
[2]; 100 µM
  mean angular velocity of exposed larvae: 0.107
[3]; 0.015 µM
  mean distance moved of exposed larvae: 25.4
[3]; 0.046 µM
  mean distance moved of exposed larvae: 26.1
[3]; 0.14 µM
  mean distance moved of exposed larvae: 19.4
[3]; 0.41 µM
  mean distance moved of exposed larvae: 25.8
[3]; 1.23 µM
  mean distance moved of exposed larvae: 17.3
[3]; 3.7 µM
  mean distance moved of exposed larvae: 12.1
[3]; 11.1 µM
  mean distance moved of exposed larvae: 23.9
[3]; 33.3 µM
  mean distance moved of exposed larvae: 26.5
[3]; 66.5 µM
  mean distance moved of exposed larvae: 18.1
[3]; 100 µM
  mean distance moved of exposed larvae: 19.5
[4]; 0.015 µM
  mean angular velocity of exposed larvae: 0.911
[4]; 0.046 µM
  mean angular velocity of exposed larvae: 1.03
[4]; 0.14 µM
  mean angular velocity of exposed larvae: 0.788
[4]; 0.41 µM
  mean angular velocity of exposed larvae: 0.731
[4]; 1.23 µM
  mean angular velocity of exposed larvae: 0.649
[4]; 3.7 µM
  mean angular velocity of exposed larvae: 0.476
[4]; 11.1 µM
  mean angular velocity of exposed larvae: 0.903
[4]; 33.3 µM
  mean angular velocity of exposed larvae: 0.989
[4]; 66.5 µM
  mean angular velocity of exposed larvae: 0.804
[4]; 100 µM
  mean angular velocity of exposed larvae: 0.714

## O=C(O)C(F)(F)C(F)(F)C(F)(F)C(F)(F)C(F)(F)C(F)(F)C(F)(F)C(F)(F)C(F)(F)C(F)(F)C(F)(F)C(F)(F)C(F)(F)C(F)(F)C(F)(F)F [Perfluoro-n-hexadecanoic acid]
[1]; 0.25 µM
  mean distance moved of exposed larvae: 6.65
[2]; 0.25 µM
  mean angular velocity of exposed larvae: 0.178
[3]; 0.25 µM
  mean distance moved of exposed larvae: 27.2
[4]; 0.25 µM
  mean angular velocity of exposed larvae: 0.833
